Experimental data reported in patent US8383637B2, “2-amino-quinazoline derivatives useful as inhibitors of β-secretase (BACE)” (Jansssen Pharmaceutica N.V., priority 2004, dated 2013).
Read-outs that look alike come from different tables or passages of the source.

What was measured:
human BACE-1 = human BACE-1 (Homo sapiens, UniProt P56817); assay: BACE Assay (CEREP); assay type: biochemical; details: recombinant enzyme, 60 min at 37° C., pH 4.5; for inhibition at 0.3 µM: test compound 0.3 μM
Experimental: The test compound, reference compound or water (control) were added to a buffer containing 0.09 M sodium acetate (pH 4.5) and 0.25 μg BACE-1. Compound interference with the fluorimetric detection method due to autofluorescence was then checked by measurements at the wavelengths defined to evaluate the enzyme activity. […] For control basal measurement, the substrate was omitted from the reaction mixture. […] The standard inhibitory reference compound was OM99-2, which was tested in each experiment at several concentrations to obtain an inhibition curve from which its IC50 value was calculated.

β-secretase(BACE) [1] = target: T1, β-secretase(BACE) (Homo sapiens, UniProt P56817); assay: BACE Assay-2 (FS1 substrate, IC50 and Ki); assay type: biochemical; details: procedure of Example 159, FS1 substrate; for Ki: read-out: Ki μM (159)
T1 construct: purchased Panvera
T1 sequence (P56817 46-501): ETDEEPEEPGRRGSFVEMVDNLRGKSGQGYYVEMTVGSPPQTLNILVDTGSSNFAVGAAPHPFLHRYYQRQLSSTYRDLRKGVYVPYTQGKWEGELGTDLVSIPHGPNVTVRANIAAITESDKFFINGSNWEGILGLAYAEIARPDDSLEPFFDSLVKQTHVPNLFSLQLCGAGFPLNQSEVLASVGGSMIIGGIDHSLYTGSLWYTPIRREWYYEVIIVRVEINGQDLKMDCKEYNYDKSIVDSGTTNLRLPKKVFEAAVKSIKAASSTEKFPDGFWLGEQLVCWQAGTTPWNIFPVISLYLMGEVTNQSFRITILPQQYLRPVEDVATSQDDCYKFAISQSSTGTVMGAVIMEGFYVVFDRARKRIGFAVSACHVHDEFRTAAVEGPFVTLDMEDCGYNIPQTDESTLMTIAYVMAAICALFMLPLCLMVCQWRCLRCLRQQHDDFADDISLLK

β-secretase(BACE) [2] = target: T1, β-secretase(BACE); assay: BACE FS1% Inhibition Assay; assay type: biochemical; details: FS1 substrate; for inhibition at 3 µM: 3 μM test compound; for inhibition at 0.3 µM: 0.3 μM test compound; for inhibition at 1 µM: 1 μM test compound
Procedure, shortened: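 Percent inhibition at each tested concentration, referenced to enzyme-free blank and vehicle-only positive control. Reaction: compound and BACE (4 μg/mL working stock) mixed 20 min at room temperature before FS1 substrate (300 μg/mL working stock), then 1 h at room temperature.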

β-secretase(BACE) [3] = target: T1, β-secretase(BACE); assay: BACE Assay-1 (MCA-substrate, IC50); assay type: biochemical; details: procedure of Example 158; read-out: IC50 μM (158)
Procedure, shortened: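 Human BACE (work solution 10 μg/mL) with MCA-peptide substrate (stock 2.0 mg/mL) in 0.05 M citrate buffer, pH 5.0, with PEG8000. Fluorescence read at T0 and T60; compounds tested at multiple concentrations and IC50 calculated from these readings.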

β-secretase(BACE) [4] = target: T1, β-secretase(BACE); assay: BACE % Inhibition Assay ((Aedens)-[…]-(Dabcyl K-amide) substrate); assay type: biochemical; details: % error ±10%, read-out: % Inhibition; for inhibition at 3 µM: 3 μM test compound; for inhibition at 10 µM: 10 μM test compound
Experimental: The substrate stock solution was prepared in DMSO as a 10 mg/mL solution. The substrate working solution was prepared by diluting the 10 mg/mL stock solution with substrate assay buffer to a final concentration of 300 μg/mL. The β-secretase (BACE) working solution was prepared by diluting a 0.83 mg/mL BACE stock solution with enzyme assay buffer to a final concentration of 4 μg/mL.
Test compounds were dissolved in DMSO to 10 mM.
The screening procedure for this assay was as follows: 15 μL of BACE working solution was pipetted into each well of a 96-well plate. To each well was then pipetted 2 μL of test compound at the selected concentration. Test compound and BACE were then mixed with a pipettor and incubated for 20 min at room temperature. To each well was then added 10 μL of the substrate working solution. The plates were then incubated for 1 hour at room temperature.
The procedure for the blank was as follows. 15 μL of assay buffer was pipetted into each well to be used as a blank control. To each well was then added 2 μL of vehicle and 10 μL of substrate working solution. The plates were then incubated for 1 hour at room temperature.
The procedure for the positive control was as follows: 15 μl of BACE working solution was pipetted into each well to be used as a positive control. To each well was then pipetted 2 μL of vehicle. Vehicle and BACE were then mixed with a pipettor and incubated for 20 min at room temperature. To each well was then added 10 μL of the substrate working solution. The plates were then incubated for 1 hour at room temperature.
For test compounds, % inhibition was determined at each concentration as follows: […]

[5] = read-out: % Inhibition (FS) 3 μM
[6] = read-out: % Inhibition (FS) 0.3 μM
[7] = read-out: % Inhibition (FS) 1 μM

Chain of human BACE-1 (P56817 46-501): as above

## NC1=Nc2ccc(Oc3ccccc3)cc2CN1[C@@H](CCC(=O)N(Cc1nc[nH]n1)C1CCCCC1)C1CCCCC1 [Compound 790]
Human BACE-1
  IC50: 93 nM
  inhibition at 0.3 µM: 98%

## NC1=Nc2ccc(Oc3ccccc3)cc2CN1[C@@H](CCC(=O)N(Cc1cnc[nH]1)C1CCCCC1)C1CCCCC1 [Compound 796]
Human BACE-1
  IC50: 190 nM

## NC1=Nc2ccc(Oc3ccccc3)cc2CN1CCNC(=O)c1ccccc1 [Compound 154]
β-secretase(BACE) [1]
  Ki: 0.61 µM
β-secretase(BACE) [2]; [5]
  inhibition at 3 µM: 56%
β-secretase(BACE) [2]; 10 μM test compound, read-out: % Inhibition (FS) 10 μM
  inhibition at 10 µM: 79%
Human BACE-1
  IC50: > 1000 nM

## NC1=Nc2ccc(Oc3ccccc3)cc2CN1[C@@H](CCC(=O)N(Cc1ccncc1)C1CCCCC1)C1CCCCC1 [Compound 789]
β-secretase(BACE) [2]; read-out: % Inhibition (FS)
  inhibition at 0.3 µM: 80%
  inhibition at 1 µM: 99%
  inhibition at 3 µM: 106%
Human BACE-1
  IC50: 78 nM
  inhibition at 0.3 µM: 94%

## NC1=Nc2ccc(Oc3ccccc3)cc2CN1[C@@H](CCC(=O)N(Cc1ncc[nH]1)C1CCCCC1)C1CCCCC1 [Compound 788]
β-secretase(BACE) [2]; read-out: % Inhibition (FS)
  inhibition at 0.3 µM: 110%
  inhibition at 1 µM: 114%
  inhibition at 3 µM: 118%
Human BACE-1
  IC50: 160 nM
  inhibition at 0.3 µM: 97%

## NC1=Nc2ccc(Oc3ccccc3)cc2CN1[C@@H](CCC(=O)N1C2CCCCC2C[C@H]1C(=O)O)C1CCCCC1 (stereo partly drawn) [Compound 795, 1-[4-(2-Amino-6-phenoxy-4H-quinazolin-3-yl)-4S-cyclohexyl-butyryl]-octahydro-indole-2S-carboxylic acid]
Human BACE-1
  IC50: 150 nM
  inhibition at 0.3 µM: 98%

## NC1=Nc2ccc(Oc3ccccc3)cc2CN1[C@@H](CCC(=O)N(CCO[C@@H]1O[C@H](CO)[C@@H](O)[C@H](O)[C@H]1O)C1CCCCC1)C1CCCCC1 [Compound 798, 4-(2-Amino-6-phenoxy-4H-quinazolin-3-yl)-4S,N-dicyclohexyl-N-[2R-(3R,4S,5S-trihydroxy-6R-hydroxymethyl-tetrahydro-pyran-2-yloxy)-ethyl]-butyramide]
Human BACE-1
  IC50: 74 nM
  inhibition at 0.3 µM: 95%

## CN(C(=O)c1cccc(CN2Cc3cc(Oc4cccc(NS(=O)(=O)c5ccccc5)c4)ccc3N=C2N)c1)C1CCCCC1 [Compound 110]
β-secretase(BACE) [3]
  IC50: 0.053 µM
β-secretase(BACE) [1]
  IC50: 1.24 µM
  Ki: 0.4 µM
β-secretase(BACE) [2]; [6]
  inhibition at 0.3 µM: < 30%
β-secretase(BACE) [2]; [7]
  inhibition at 1 µM: 30%
β-secretase(BACE) [2]; [5]
  inhibition at 3 µM: 84%
β-secretase(BACE) [4]
  inhibition at 3 µM: 75%
  inhibition at 10 µM: 96%

## NC1=Nc2ccc(Oc3ccccc3)cc2CN1Cc1cccc(C(=O)N(C2CCCCC2)C2CCCCC2)c1 [Compound 98]
β-secretase(BACE) [3]
  IC50: 0.2 µM
β-secretase(BACE) [1]
  IC50: 2.3 µM
  Ki: 1.1 µM
β-secretase(BACE) [2]; [6]
  inhibition at 0.3 µM: 49%
β-secretase(BACE) [2]; [7]
  inhibition at 1 µM: 93%
β-secretase(BACE) [2]; [5]
  inhibition at 3 µM: 114%
β-secretase(BACE) [4]
  inhibition at 3 µM: 76%
  inhibition at 10 µM: 99%

## CN(C(=O)CCN1Cc2cc(C(=O)c3ccccc3)ccc2N=C1N)C1CCCCC1
other
  melting point: 198.1 °C

## CC(=O)OCC1OC(OCCN(C(=O)CCC(C2CCCCC2)N2Cc3cc(Oc4ccccc4)ccc3N=C2N)C2CCCCC2)C(OC(C)=O)C(OC(C)=O)C1OC(C)=O (stereo not shown) [Compound 797]
Human BACE-1
  IC50: 120 nM
  inhibition at 0.3 µM: 95%
